Experimental data reported in ChEMBL document CHEMBL5550164, “Enhancing anticancer treatment: Development of cRGD-Conjugated F-OH-Evo prodrugs for targeted delivery” (Bioorg Med Chem, 2024).
Active and inactive are the calls of the source. The calls are words filed in the database; no cut-off is given here.

Assays:
A549 = assay: Cytotoxicity against human A549 cells measured after 72 hrs by CCK8 assay; assay type: functional, cell-based; settings: A549, 72 h
U-87 MG [1] = assay: Cytotoxicity against human U87 cells measured after 72 hrs by CCK8 assay; assay type: functional, cell-based, U-87MG ATCC
MCF7 = assay: Cytotoxicity against human MCF7 cells measured after 72 hrs by CCK8 assay; assay type: functional, cell-based; settings: MCF7, 72 h
HeLa = assay: Cytotoxicity against human HeLa cells measured after 72 hrs by CCK8 assay; assay type: functional, cell-based
[2] = Drug uptake in human U87 cells by flow cytometry analysis; assay type: ADME, cell-based; settings: u-87mg atcc
[3] = Drug uptake in human U87 cells at 20 nM by flow cytometry analysis; assay type: ADME, cell-based; settings: u-87mg atcc, 0.02 µM
[4] = Drug uptake in human MCF7 cells incubated for 24 hrs by confocal laser scanning microscopy; assay type: ADME, cell-based; settings: mcf7, 24 h
[5] = Drug uptake in human U87 cells incubated for 24 hrs by confocal laser scanning microscopy; assay type: ADME, cell-based; settings: u-87mg atcc
U-87 MG [6] = assay: Inhibition of colony formation in human U87 cells at 25 nM pretreated for 24 hrs followed by media replacement for every 3 days by crystal violet staining based assay; assay type: functional, cell-based; settings: U-87MG ATCC
U-87 MG [7] = assay: Inhibition of cell migration in human U87 cells at 25 nM incubated for 48 hrs by transwell assay relative to control; assay type: functional, U-87MG ATCC
U-87 MG [8] = assay: Potency index ratio of 3-fluoro-10-hydroxy-Evodiamine IC50 to test compound IC50 for cytotoxicity against human U87 cells; assay type: functional, U-87MG ATCC
[9] = Stability in serum (unknown origin) assessed as compound remaining after 180 mins by HPLC analysis; assay type: ADME, cell-free; settings: read-out: Stability
U-87 MG [10] = assay: Inhibition of cell migration in human U87 cells at 25 nM after 16 hrs by scratch assay; assay type: functional, cell-based; settings: U-87MG ATCC
U-87 MG [11] = assay: Induction of cell cycle arrest at G2 phase in human U87 cells at 25 nM incubated for 24 hrs by flow cytometry analysis; assay type: functional, U-87MG ATCC
[12] = target: T1, DNA topoisomerase 1 (Homo sapiens) (UniProt P11387); assay: Inhibition of topoisomerase 1 (unknown origin) mediated DNA relaxation using supercoiled pBR322 DNA as substrate incubated for 1 hr by EtBr staining based agarose gel electrophoresis method; settings: dose 500-1000 µM
T1 sequence (whole entry): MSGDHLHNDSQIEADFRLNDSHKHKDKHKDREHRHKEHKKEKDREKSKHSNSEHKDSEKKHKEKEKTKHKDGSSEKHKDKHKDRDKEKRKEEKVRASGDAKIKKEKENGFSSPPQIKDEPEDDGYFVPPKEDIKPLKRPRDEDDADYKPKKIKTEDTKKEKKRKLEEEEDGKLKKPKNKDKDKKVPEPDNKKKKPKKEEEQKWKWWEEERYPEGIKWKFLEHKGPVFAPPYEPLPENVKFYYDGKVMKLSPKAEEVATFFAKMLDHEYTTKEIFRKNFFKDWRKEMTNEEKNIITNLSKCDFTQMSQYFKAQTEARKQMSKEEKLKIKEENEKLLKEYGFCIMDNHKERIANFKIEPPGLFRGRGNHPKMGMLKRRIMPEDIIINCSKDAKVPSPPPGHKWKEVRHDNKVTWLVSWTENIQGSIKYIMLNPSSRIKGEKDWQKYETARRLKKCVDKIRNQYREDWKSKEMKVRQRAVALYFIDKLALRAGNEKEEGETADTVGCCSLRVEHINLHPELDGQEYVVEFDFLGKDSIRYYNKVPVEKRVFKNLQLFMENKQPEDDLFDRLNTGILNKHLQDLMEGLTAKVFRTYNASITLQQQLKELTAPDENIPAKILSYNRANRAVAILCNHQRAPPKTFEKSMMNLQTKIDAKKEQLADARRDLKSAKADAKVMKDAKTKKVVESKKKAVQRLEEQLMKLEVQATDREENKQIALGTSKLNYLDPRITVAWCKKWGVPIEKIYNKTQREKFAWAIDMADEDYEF

SMILES | IC50 (A549) [nM] | IC50 (U-87 MG [1]) [nM] | IC50 (MCF7) [nM] | IC50 (HeLa) [nM] | also measured
CN1c2ccc(F)cc2C(=O)N2CCc3c([nH]c4ccc(OC(=O)CSCC(=O)NCCCC[C@@H]5NC(=O)[C@H](Cc6ccccc6)NC(=O)[C@H](CC(=O)O)NC(=O)CNC(=O)[C@H](CCCNC(=N)N)NC5=O)cc34)C21 (stereo partly drawn) | 54.1 | 83.6 | 109 | 202 | –
CN1c2ccc(F)cc2C(=O)N2CCc3c([nH]c4ccc(OC(=O)CSCC(=O)NC[C@@H]5NC(=O)[C@H](Cc6ccccc6)NC(=O)[C@H](CC(=O)O)NC(=O)CNC(=O)[C@H](CCCNC(=N)N)NC5=O)cc34)C21 (stereo partly drawn) | 51.5 | 130 | 30.6 | 74.8 | –
CN1c2ccc(F)cc2C(=O)N2CCc3c([nH]c4ccc(O)cc34)[C@H]21 | 22.4 | 139 | 5.2 | 93.4 | –
CN1c2ccc(F)cc2C(=O)N2CCc3c([nH]c4ccc(OC(=O)CCCC(=O)NCCCC[C@@H]5NC(=O)[C@H](Cc6ccccc6)NC(=O)[C@H](CC(=O)O)NC(=O)CNC(=O)[C@H](CCCNC(=N)N)NC5=O)cc34)C21 (stereo partly drawn) | 479 | 287 | 69.8 | 359 | –
CCN(CC)c1ccc2cc(C(=O)NCCCCCC(=O)NCCCCC(NC(=O)CSCC(=O)Oc3ccc4[nH]c5c(c4c3)CCN3C(=O)c4cc(F)ccc4N(C)C53)C(=O)NCCC[C@@H]3NC(=O)[C@H](Cc4ccccc4)NC(=O)[C@H](CC(=O)O)NC(=O)CNC(=O)[C@H](CCCNC(=N)N)NC3=O)c(=O)oc2c1 (stereo partly drawn) | – | – | – | – | Drug uptake [2]: Dose-Dependent Effect and Tde; Drug uptake [3]: 44.8%; Drug uptake [4]: Not Active; Drug uptake [5]: Active
CN1c2ccc(F)cc2C(=O)N2CCc3c([nH]c4ccc(OC(=O)CCCC(=O)NCCC[C@@H]5NC(=O)[C@H](Cc6ccccc6)NC(=O)[C@H](CC(=O)O)NC(=O)CNC(=O)[C@H](CCCNC(=N)N)NC5=O)cc34)C21 (stereo partly drawn) | 460 | > 500 | 92.2 | 324 | –
CN1c2ccc(F)cc2C(=O)N2CCc3c([nH]c4ccc(OC(=O)CCSSCCC(=O)NCCCC[C@@H]5NC(=O)[C@H](Cc6ccccc6)NC(=O)[C@H](CC(=O)O)NC(=O)CNC(=O)[C@H](CCCNC(=N)N)NC5=O)cc34)C21 (stereo partly drawn) | 387 | 458 | 163 | 197 | –
CN1c2ccc(F)cc2C(=O)N2CCc3c([nH]c4ccc(OC(=O)CCSSCCC(=O)NCCC[C@@H]5NC(=O)[C@H](Cc6ccccc6)NC(=O)[C@H](CC(=O)O)NC(=O)CNC(=O)[C@H](CCCNC(=N)N)NC5=O)cc34)C21 (stereo partly drawn) | > 500 | > 500 | 205 | 322 | –
CN1c2ccc(F)cc2C(=O)N2CCc3c([nH]c4ccc(OC(=O)CCCC(=O)NCC[C@@H]5NC(=O)[C@H](Cc6ccccc6)NC(=O)[C@H](CC(=O)O)NC(=O)CNC(=O)[C@H](CCCNC(=N)N)NC5=O)cc34)C21 (stereo partly drawn) | 344 | 144 | 70.4 | 306 | –
CN1c2ccc(F)cc2C(=O)N2CCc3c([nH]c4ccc(OC(=O)CSCC(=O)NCCC[C@@H]5NC(=O)[C@H](Cc6ccccc6)NC(=O)[C@H](CC(=O)O)NC(=O)CNC(=O)[C@H](CCCNC(=N)N)NC5=O)cc34)C21 (stereo partly drawn) | 45.7 | 29.9 | 83.2 | 125 | inhibition (U-87 MG [6]): Active; inhibition at 0.025 µM (U-87 MG [7]): 25.5%; Ratio IC50 (U-87 MG [8]): 5; remaining at 3 h [9]: 60%; inhibition (U-87 MG [10]): Active; Activity (U-87 MG [11]): >90%; inhibition [12]: Dose-Dependent Effect
CN1c2ccc(F)cc2C(=O)N2CCc3c([nH]c4ccc(OC(=O)CCSSCCC(=O)NC[C@@H]5NC(=O)[C@H](Cc6ccccc6)NC(=O)[C@H](CC(=O)O)NC(=O)CNC(=O)[C@H](CCCNC(=N)N)NC5=O)cc34)C21 (stereo partly drawn) | > 500 | 406 | 138 | 282 | –
CN1c2ccc(F)cc2C(=O)N2CCc3c([nH]c4ccc(OC(=O)CCSSCCC(=O)NCC[C@@H]5NC(=O)[C@H](Cc6ccccc6)NC(=O)[C@H](CC(=O)O)NC(=O)CNC(=O)[C@H](CCCNC(=N)N)NC5=O)cc34)C21 (stereo partly drawn) | > 500 | 247 | 164 | > 500 | –
CN1c2ccc(F)cc2C(=O)N2CCc3c([nH]c4ccc(OC(=O)CSCC(=O)NCC[C@@H]5NC(=O)[C@H](Cc6ccccc6)NC(=O)[C@H](CC(=O)O)NC(=O)CNC(=O)[C@H](CCCNC(=N)N)NC5=O)cc34)C21 (stereo partly drawn) | 38.1 | 53 | 60.2 | 53.7 | –
CN1c2ccc(F)cc2C(=O)N2CCc3c([nH]c4ccc(OC(=O)CCCC(=O)NC[C@@H]5NC(=O)[C@H](Cc6ccccc6)NC(=O)[C@H](CC(=O)O)NC(=O)CNC(=O)[C@H](CCCNC(=N)N)NC5=O)cc34)C21 (stereo partly drawn) | 307 | 285 | 137 | 302 | –
